The target of one experiment is T1, Estrogen receptor (Homo sapiens, UniProt P03372).
T1 sequence (P03372 whole entry): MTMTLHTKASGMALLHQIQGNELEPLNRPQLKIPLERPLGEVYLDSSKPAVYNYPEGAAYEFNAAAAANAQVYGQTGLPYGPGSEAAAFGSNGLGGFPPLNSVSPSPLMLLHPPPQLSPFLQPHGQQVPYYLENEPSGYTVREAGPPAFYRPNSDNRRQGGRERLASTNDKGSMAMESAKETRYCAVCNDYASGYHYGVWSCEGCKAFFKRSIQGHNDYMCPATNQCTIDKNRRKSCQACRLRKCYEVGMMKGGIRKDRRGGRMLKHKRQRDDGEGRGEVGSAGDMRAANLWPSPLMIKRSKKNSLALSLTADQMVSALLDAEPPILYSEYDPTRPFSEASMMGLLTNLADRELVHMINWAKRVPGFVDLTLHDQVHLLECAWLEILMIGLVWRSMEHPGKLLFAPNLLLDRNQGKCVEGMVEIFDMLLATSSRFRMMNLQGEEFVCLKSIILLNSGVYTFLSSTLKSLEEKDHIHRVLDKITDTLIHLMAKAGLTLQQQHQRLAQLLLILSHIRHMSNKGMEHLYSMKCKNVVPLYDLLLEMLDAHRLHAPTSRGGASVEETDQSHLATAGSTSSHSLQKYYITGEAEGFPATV
Description: biochemical.

Experiment [1] concerns the target Voltage-gated inwardly rectifying potassium channel KCNH2 (Homo sapiens, UniProt Q12809).
The next experiment has as its target T2, Androgen receptor (Rattus norvegicus, UniProt P15207).
T2 sequence (P15207 whole entry): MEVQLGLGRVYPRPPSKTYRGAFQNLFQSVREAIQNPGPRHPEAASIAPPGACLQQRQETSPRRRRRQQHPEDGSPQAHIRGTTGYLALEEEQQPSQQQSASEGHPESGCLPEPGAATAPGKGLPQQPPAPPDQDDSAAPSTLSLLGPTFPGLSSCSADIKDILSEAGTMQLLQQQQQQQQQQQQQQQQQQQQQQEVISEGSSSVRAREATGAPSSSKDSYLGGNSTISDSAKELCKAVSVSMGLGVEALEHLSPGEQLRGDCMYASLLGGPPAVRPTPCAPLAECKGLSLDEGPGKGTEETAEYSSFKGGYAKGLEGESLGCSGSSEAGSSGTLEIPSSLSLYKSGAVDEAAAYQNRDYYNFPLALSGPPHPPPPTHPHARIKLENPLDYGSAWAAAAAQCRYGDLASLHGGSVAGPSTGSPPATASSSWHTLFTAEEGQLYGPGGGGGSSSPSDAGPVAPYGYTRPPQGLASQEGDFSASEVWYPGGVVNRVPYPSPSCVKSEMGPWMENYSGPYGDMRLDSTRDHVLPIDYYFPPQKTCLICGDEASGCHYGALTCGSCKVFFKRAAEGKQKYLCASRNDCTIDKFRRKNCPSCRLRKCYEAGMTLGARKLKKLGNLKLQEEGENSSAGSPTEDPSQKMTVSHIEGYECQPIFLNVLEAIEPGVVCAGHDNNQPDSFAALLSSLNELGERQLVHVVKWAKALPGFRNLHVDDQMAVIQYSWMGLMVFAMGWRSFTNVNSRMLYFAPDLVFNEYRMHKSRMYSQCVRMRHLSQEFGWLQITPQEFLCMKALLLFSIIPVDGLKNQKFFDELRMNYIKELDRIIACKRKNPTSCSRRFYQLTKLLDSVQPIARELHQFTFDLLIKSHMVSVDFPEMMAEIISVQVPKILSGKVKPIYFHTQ

In the next experiment the target is T3, Glucocorticoid receptor (Homo sapiens, UniProt P04150).
T3 sequence (P04150 whole entry): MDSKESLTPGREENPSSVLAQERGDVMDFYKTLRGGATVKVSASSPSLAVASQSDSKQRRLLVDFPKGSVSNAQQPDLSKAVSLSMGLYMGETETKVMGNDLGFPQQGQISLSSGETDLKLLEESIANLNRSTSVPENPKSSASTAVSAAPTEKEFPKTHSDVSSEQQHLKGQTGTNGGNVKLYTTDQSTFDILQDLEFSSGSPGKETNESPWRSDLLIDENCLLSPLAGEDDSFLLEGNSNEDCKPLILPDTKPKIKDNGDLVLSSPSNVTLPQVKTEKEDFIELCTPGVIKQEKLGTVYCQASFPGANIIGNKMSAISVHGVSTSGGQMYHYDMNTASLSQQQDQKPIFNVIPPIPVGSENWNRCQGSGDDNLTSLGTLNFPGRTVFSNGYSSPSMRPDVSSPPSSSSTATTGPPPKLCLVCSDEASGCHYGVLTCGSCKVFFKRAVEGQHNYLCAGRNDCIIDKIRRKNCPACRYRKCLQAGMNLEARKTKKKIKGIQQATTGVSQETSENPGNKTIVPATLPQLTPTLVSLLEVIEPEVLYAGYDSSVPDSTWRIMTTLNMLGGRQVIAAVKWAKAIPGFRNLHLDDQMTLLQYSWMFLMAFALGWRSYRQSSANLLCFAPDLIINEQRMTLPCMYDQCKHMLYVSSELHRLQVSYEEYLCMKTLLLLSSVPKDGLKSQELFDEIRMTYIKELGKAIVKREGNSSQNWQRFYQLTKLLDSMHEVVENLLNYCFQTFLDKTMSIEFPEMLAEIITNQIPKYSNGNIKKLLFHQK
Description: biochemical.

The results in this text go back to ChEMBL document CHEMBL1909046, “DrugMatrix in vitro pharmacology data”.

The structures appear in SMILES notation.

A word on the IC50: it is the concentration that gives 50% inhibition. A higher IC50 goes with lower potency. Usually Ki stands for a dissociation constant, usually derived from enzyme kinetics or from competition with a known ligand. A higher Ki goes with a looser hold on the target.

Sequence of Voltage-gated inwardly rectifying potassium channel KCNH2 (Q12809 whole entry): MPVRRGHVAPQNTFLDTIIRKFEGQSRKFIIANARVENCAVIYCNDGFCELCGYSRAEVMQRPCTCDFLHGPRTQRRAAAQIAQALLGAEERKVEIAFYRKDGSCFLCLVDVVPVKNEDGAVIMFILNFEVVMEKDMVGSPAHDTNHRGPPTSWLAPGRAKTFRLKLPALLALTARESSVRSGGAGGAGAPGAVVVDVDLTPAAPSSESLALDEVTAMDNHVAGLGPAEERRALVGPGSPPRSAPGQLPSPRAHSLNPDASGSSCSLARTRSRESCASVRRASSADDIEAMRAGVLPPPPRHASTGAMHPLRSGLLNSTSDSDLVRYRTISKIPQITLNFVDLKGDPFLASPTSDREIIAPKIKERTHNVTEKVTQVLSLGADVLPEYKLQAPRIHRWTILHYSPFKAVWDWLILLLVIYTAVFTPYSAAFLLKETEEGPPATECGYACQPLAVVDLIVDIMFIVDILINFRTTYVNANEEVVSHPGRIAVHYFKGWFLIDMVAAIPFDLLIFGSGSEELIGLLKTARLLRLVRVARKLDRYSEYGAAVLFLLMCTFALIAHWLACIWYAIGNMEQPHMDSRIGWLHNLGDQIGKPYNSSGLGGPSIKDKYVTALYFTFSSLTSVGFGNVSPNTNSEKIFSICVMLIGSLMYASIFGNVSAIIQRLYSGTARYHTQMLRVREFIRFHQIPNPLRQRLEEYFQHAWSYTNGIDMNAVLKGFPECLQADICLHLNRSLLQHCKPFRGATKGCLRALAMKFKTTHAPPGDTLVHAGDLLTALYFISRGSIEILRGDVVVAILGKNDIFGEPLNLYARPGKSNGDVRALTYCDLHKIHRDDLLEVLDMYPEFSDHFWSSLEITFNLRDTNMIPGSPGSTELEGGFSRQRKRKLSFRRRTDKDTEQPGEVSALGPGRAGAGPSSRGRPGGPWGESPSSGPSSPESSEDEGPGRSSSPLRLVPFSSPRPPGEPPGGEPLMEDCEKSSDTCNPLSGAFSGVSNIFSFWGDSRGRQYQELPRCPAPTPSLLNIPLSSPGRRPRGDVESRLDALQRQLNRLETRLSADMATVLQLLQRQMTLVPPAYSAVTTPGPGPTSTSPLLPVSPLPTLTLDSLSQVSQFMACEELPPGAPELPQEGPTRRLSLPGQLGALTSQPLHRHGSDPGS

As to `C#C[C@]1(O)CC[C@H]2[C@@H]3[C@H](C)CC4=C(CCC(=O)C4)[C@H]3CC[C@@]21C` [TIBOLONE], at Estrogen receptor, the IC50 turned out to be 433 nM and the Ki was determined as 124 nM.

With `Cc1cc2c(s1)Nc1ccccc1N=C2N1CCN(C)CC1` [OLANZAPINE], the IC50 in experiment [1] amounted to 100000 nM.

`CCOC(=O)C1=C(C)NC(C)=C(C(=O)OCC)C1c1ccccc1/C=C/C(=O)OC(C)(C)C` [LACIDIPINE]: on Androgen receptor, the IC50 turned out to be 3920 nM and the Ki was determined as 2610 nM.

`CC(=O)O[C@]1(C(C)=O)CC[C@H]2[C@@H]3C[C@H](C)C4=CC(=O)CC[C@]4(C)[C@H]3CC[C@@]21C` [MEDROXYPROGESTERONE ACETATE]: at Glucocorticoid receptor, half-maximal inhibition (IC50) required 19 nM and the affinity corresponds to a Ki of 8.64 nM.
